Data set [1] relates to rats. Briefly: Pharmacological characteristics at equivalent doses (2×ED50) in rats. The following applies: 2×ED50, tail vein; for Adverse reactions: Red urine (incidence): DMSO solution (DMSO alone 10/10); for Onset time: time of LORR. Here is the method: Comparison of Pharmacological Characteristics of the Compounds at Equivalent Doses (2×ED50) in Rats
Adult male Sprague-Dawley rats (250-300 g) were selected for the experiment (n=8). […] The drugs were administered at a dose twice their ED50 through the tail vein of rats in a volume of 0.6 mL and at a rate of 0.1 mL/s. In addition, the time of LORR was recorded as the onset time of anesthesia. […] Furthermore, the duration of the pharmacological effects is sufficient to meet the time requirements for rapid induction of general anesthesia and for diagnostic examinations, some short invasive clinical examinations, or operations.

Data set [2] deals with rats. Here is the method:
(§1) Adult male Sprague-Dawley rats (250-300 g) were selected for the experiment. […] The anesthesia effects of the compounds were assessed in rats using a LORR assay and a period >30 s was considered as an indicator of general anesthesia. Then the up and down method was used to determine 50% effective dose (ED50). The drugs were administered through the tail vein of rats in a volume of 0.6 mL and at a rate of 0.1 mL/s.

Data set [3] deals with secretion of cortisol, H295R cell line. Briefly: cells. In kind it is cell-based. The settings on record: for EC50: Homo sapiens, NCI-H295R, read-out: EC50 (Cortisol). The protocol: (§2) The Effects of the Compounds on Adrenocortical Function In Vitro Test
(§3) Then secretion of the cortisol and corticosterone in the supernatant, was measured using HPLC-MS/MS method to determine whether the compounds of the present invention had adrenotoxic potential.

For data set [4], the system named is secretion of corticosterone, H295R cell line. Briefly: cells. In kind it is cell-based. The following applies: for EC50: Homo sapiens, NCI-H295R, read-out: EC50 (Corticosterone). The protocol: as §2, §3
Data set [5] relates to rats. Briefly: Loss of righting reflexes (LORR) assay in rats, ED50 by up and down method. In kind it is in vivo, rat. The following applies: Rattus norvegicus, tail vein, class symbols. The protocol:
The Anesthetic Activity of the Compounds was Assessed in Rats Using a Loss of Righting Reflexes (LORR) Assay
as §1

Data set [6] concerns rats. The protocol: Pharmacological Effects of the Compounds on Continuous Infusion in Rats
Adult male Sprague-Dawley rats with body weight ranging from 250 to 300 gm were selected for continuous infusion test. […] Time to recovery of righting reflex from stopping infusion, and time to fully awake from stopping infusion were recorded.
This is another data set of the same source.

[7] abbreviates: continuous tail vein infusion at 2×MIR, LORR maintained 1 hour, Table D4.
The mark [8] stands for this setting: H295R cell line, 0.1-10000 nM, HPLC-MS/MS, Table D3.

Like-named read-outs stand apart in the source and are kept apart here.

One may read the EC50 as the concentration at which the effect is half-maximal. What is called ED50 is the dose that gives a 50% effect, or the effect in half of the subjects. `C[C@H](c1ccccc1)n1cncc1C(=O)OC1(C)CCC1=O` (stereo partly shown) [Compound A13]: in the data set with rats [1], the “Righting reflex duration” value turned out to be 2.31 ± 2.14 min, the “Adverse reactions: Red urine (incidence)” value was “Red urine (8/8)” and the “Onset time” value is recorded as 0.56 ± 0.12 min. In the data set on rats [2], the Approximate therapeutic index is more than 10 and the “Minimal lethal dose” value is more than 4 mg/kg. The “Cortisol as an indicator to determine the presence of inhibition” value (from here on “Cortisol as an indicator … of inhibition”) in data set [3] (H295R, Table A3) is 0. In addition, the half-maximal effective concentration (EC50) in data set [3] was more than 10 µM. For the same compound, in data set [4] (H295R, Table A3), the “Corticosterone as an indicator to determine the presence of inhibition” value (“Corticosterone as an indicator … of inhibition” below) worked out at 0. Besides, in data set [4], the concentration for a half-maximal effect (EC50) was more than 10 µM. In the data set with rats [5], the ED50 is 0.1 to 0.5 mg/kg.
As to `C[C@H](c1ccccc1)n1cncc1C(=O)OCC1(C(F)F)CCC1` [Compound A19], in the data set on rats [1], the “Righting reflex duration” value came out at 6.13 ± 2.87 min, the “Adverse reactions: Red urine (incidence)” value is “Red urine (8/8)” and the “Onset time” value was found to be 0.36 ± 0.16 min. For the same compound, in the data set with rats [2], the Approximate therapeutic index is more than 10 and the “Minimal lethal dose” value is more than 5 mg/kg. Besides, the “Cortisol as an indicator … of inhibition” value in data set [3] (H295R, Table A3) is 0. For the same compound, the EC50 in data set [3] was more than 10 µM. For the same compound, in data set [4] (H295R, Table A3), the “Corticosterone as an indicator … of inhibition” value is given as 0. Also, the EC50 in data set [4] is more than 10 µM. The same compound returned an ED50 with rats [5] of 0.1 to 0.5 mg/kg.
For the compound `C[C@H](c1ccccc1)n1cncc1C(=O)OC1(C2CO2)CCC1` (stereo partly shown) [Compound A20], in the data set on rats [1], the “Righting reflex duration” value stood at 1.90 ± 0.74 min, the “Adverse reactions: Red urine (incidence)” value is “Red urine (8/8)” and the “Onset time” value turned out to be 0.11 ± 0.03 min. Further, in the data set with rats [2], the Approximate therapeutic index is on record as more than 22 and the “Minimal lethal dose” value was more than 3 mg/kg. The “Cortisol as an indicator … of inhibition” value in data set [3] (H295R, Table A3) was 0. In data set [3], the EC50 was more than 10 µM. The “Corticosterone as an indicator … of inhibition” value in data set [4] (H295R, Table A3) is 0. For the same compound, the EC50 in data set [4] was more than 10 µM. Further, in the data set with rats [5], the ED50 is 0.01 to 0.1 mg/kg.
In the case of `C[C@H](c1ccccc1)n1cncc1C(=O)OCC1(C2CO2)CCC1` (stereo partly shown) [Compound A21], the “Recovery time after stopping infusion” value in the data set with rats [6] (after 1 hour infusion at 2×MIR) is 15 to 25 min. The “Types and incidence of adverse reactions” value in the data set on rats [6] (continuous infusion 2×MIR, in words) is given as “No”. The “Onset time” value with rats [6] (emulsion, continuous infusion at 2×MIR) lay in the range of 3 to 4 min. Moreover, in the data set on rats [1], the “Righting reflex duration” value turned out to be 1.75 ± 0.26 min, the “Adverse reactions: Red urine (incidence)” value was “Red urine (8/8)” and the “Onset time” value was determined as 0.27 ± 0.19 min. In the data set on rats [2], the Approximate therapeutic index was more than 16 and the “Minimal lethal dose” value was more than 5 mg/kg. Also, in data set [3] (H295R, Table A3), the “Cortisol as an indicator … of inhibition” value amounted to 0. Also, the EC50 in data set [3] was more than 1 µM. Moreover, in data set [4] (H295R, Table A3), the “Corticosterone as an indicator … of inhibition” value is given as 0. Also, the 50% effective concentration (EC50) in data set [4] is more than 1 µM. This compound gave an ED50 in the data set on rats [5] of 0.1 to 0.5 mg/kg.
Take `CCC(=O)C1(OC(=O)c2cncn2[C@H](C)c2ccccc2)CC1` [Compound C16]: in the data set on rats [1], the “Righting reflex duration” value worked out at 1.31 ± 0.95 min, the “Adverse reactions: Red urine (incidence)” value was “Red urine (8/8)” and the “Onset time” value came to 0.73 ± 0.23 min. Further, in the data set on rats [2], the Approximate therapeutic index is listed as more than 14 and the “Minimal lethal dose” value is more than 10 mg/kg. The “Cortisol as an indicator … of inhibition” value in data set [3] (H295R, Table C3) came to 0. Moreover, the EC50 in data set [3] was more than 1 µM. Moreover, in data set [4] (H295R, Table C3), the “Corticosterone as an indicator … of inhibition” value is listed as 0. Besides, the 50% effective concentration (EC50) in data set [4] was more than 1 µM. The ED50 in the data set on rats [5] lay within 0.5 to 1 mg/kg.
`CCC(C)(C)OC(=O)c1cncn1[C@H](C)c1ccccc1` [Compound C19]: in the data set with rats [1], the “Righting reflex duration” value is 1.26 ± 0.99 min, the “Adverse reactions: Red urine (incidence)” value is “Red urine (8/8)” and the “Onset time” value amounted to 0.45 ± 0.23 min. For the same compound, in the data set with rats [2], the Approximate therapeutic index is given as more than 20 and the “Minimal lethal dose” value is on record as more than 5 mg/kg. The “Cortisol as an indicator … of inhibition” value in data set [3] (H295R, Table C3) is 0. The EC50 in data set [3] was more than 1 µM. The “Corticosterone as an indicator … of inhibition” value in data set [4] (H295R, Table C3) came to 0. Besides, the EC50 in data set [4] is more than 1 µM. Further, in the data set with rats [5], the median effective dose (ED50) lay within 0.1 to 0.5 mg/kg.
Consider `CSCCSC(=O)c1cncn1[C@H](C)c1ccccc1` [Compound C30], for which, in the data set with rats [1], the “Righting reflex duration” value is given as 3.67 ± 1.48 min, the “Adverse reactions: Red urine (incidence)” value is given as “Red urine (8/8)” and the “Onset time” value is 0.23 ± 0.03 min. Also, in the data set with rats [2], the Approximate therapeutic index is more than 11 and the “Minimal lethal dose” value is on record as more than 11 mg/kg. For the same compound, the “Cortisol as an indicator … of inhibition” value in data set [3] (H295R, Table C3) is recorded as 0. For the same compound, in data set [3], the EC50 is more than 1 µM. Moreover, in data set [4] (H295R, Table C3), the “Corticosterone as an indicator … of inhibition” value is listed as 0. Besides, the 50% effective dose (ED50) in the data set with rats [5] lay within 0.5 to 1 mg/kg.
For the compound `C=C=CC1(OC(=O)c2cncn2[C@H](C)c2ccccc2)CSC1` [Compound D28], in the data set with rats [6] (setting [7]), the Onset time was in the range of 3 to 4 min; the “Recovery time after stopping infusion” value was 13 to 16 min; the “Types and incidence of adverse reactions” value is on record as “Tremor (2/6)”. Moreover, in the data set on rats [1], the “Righting reflex duration” value was determined as 5.09 ± 1.89 min, the “Adverse reactions: Red urine (incidence)” value is reported as “Red urine (8/8)” and the “Onset time” value was 0.25 ± 0.06 min. For the same compound, in the data set on rats [2], the Approximate therapeutic index was more than 16 and the “Minimal lethal dose” value is more than 10 mg/kg. Besides, in data set [3] (setting [8]), the “Cortisol as an indicator … of inhibition” value was determined as 0. In addition, in data set [3], the concentration for a half-maximal effect (EC50) was more than 10 µM. In addition, the “Corticosterone as an indicator … of inhibition” value in data set [4] (setting [8]) was determined as 0. The EC50 in data set [4] is more than 10 µM. Also, the median effective dose (ED50) with rats [5] lay in the range of 0.01 to 0.1 mg/kg.

The values above are taken from US11434205B2, “Substituted imidazole carboxylate derivatives and the use thereof” (priority 2018, dated 2022).
